A short description of experiment [1]: Inhibition of Magnaporthe grisea Guy 11 isocitrate lyase. On the set-up: species or system Pyricularia grisea.
The next experiment addresses T1, Sortase A (Staphylococcus aureus, UniProt Q9S446).
T1 sequence (Q9S446 whole entry): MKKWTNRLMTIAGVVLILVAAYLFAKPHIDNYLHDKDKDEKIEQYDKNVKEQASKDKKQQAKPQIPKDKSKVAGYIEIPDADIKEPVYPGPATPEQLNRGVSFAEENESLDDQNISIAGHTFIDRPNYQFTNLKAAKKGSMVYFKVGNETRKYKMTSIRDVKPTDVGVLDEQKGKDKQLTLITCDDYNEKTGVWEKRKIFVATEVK
In words: Inhibition of recombinant Staphylococcus aureus ATCC 6538p sortase A incubated for 1 hr in presence of (Dabcyl-QALPETGEE-Edans substrate by fluorescence spectrophotometry.

For experiment [2], the target named is Sodium/potassium-transporting ATPase. Put plainly: Inhibition of Na+/K+-ATPase in human placental syncytiotrophoblast-microvillous membranes/basal membranes using 3-O-methylfluorescein phosphate by fluorometric method.
A further experiment has as its system PC-12. In words: Anti-anoxic activity in rat PC12 cells reduction in assessed as sodium hydrosulfite-induced cell injury. It is filed as functional, cell-based.
Another experiment concerns the target Cathepsin B (Homo sapiens, UniProt P07858). In words: Inhibition of cathepsin B (unknown origin) assessed as reduction in enzyme activity.

Converted amounts (≈) assume the structure as drawn. Where only a bound is given, the exact number is not on record here.

On to `COC(=O)c1ccccc1NC(=O)[C@H](CO)NC(=O)c1cnc2c(n1)c(=O)[nH]c(=O)n2C`, for which the IC50 (in experiment [1]; at Sortase A; in experiment [2]) was above 100 µM throughout.

Regarding `CSc1c(C(=O)O)sc2nc3[nH]c(=O)[nH]c(=O)c3nc12`, the EC50 in the experiment with PC-12 came to 27 µg/mL (≈ 87 µM). For `CN(CCc1cnc[nH]1)c1cnc2[nH]c(=O)[nH]c(=O)c2n1`, on Cathepsin B, the IC50 was 4.87 µM. `COC(=O)c1ccccc1NC(=O)[C@@H](NC(=O)c1cnc2c(n1)c(=O)[nH]c(=O)n2C)[C@@H](C)O`: the half-inhibitory concentration (IC50) (in experiment [1]; on Sortase A; in experiment [2]) was above 100 µM in each case.

As to `CSc1c(C(=O)CO)sc2nc3[nH]c(=O)[nH]c(=O)c3nc12`, in the experiment with PC-12, the EC50 is 19.5 µg/mL (≈ 60.2 µM). Turning to `COCCOC(=O)C1=C(C)NC(C)=C(C(=O)OC(C)C)C1c1cccc([N+](=O)[O-])c1` (stereo not given) [NIMODIPINE], in the experiment with PC-12, the EC50 is 1.29 µg/mL (≈ 3.08 µM).
